Experimental data taken from patent US4954512A, “Anti-ulcer composition” (Okamoto; Shosuke, priority 1987, dated 1990).
Where a name gives a salt, the structure may show the parent alone. Where a SMILES comes first, the peptide text is derived from it. [ ]: non-standard residue; d: D form. Trx = NC[C@H]1CC[C@H](C(=O)O)CC1; Sar = CNCC(=O)O

How the values were obtained:
hydrochloric acid ulcer = experiment: Action against hydrochloric acid ulcer; type: in vivo, Wistar-strain male rats; details: po, 1 h; rat, 100 mg/kg peroral administration, 30 min before 0.6 N-HCl; ulcer area; read-out: Anti-ulcer action (hydrochloric acid ulcer model), Inhibition rate against non-administered animal
Protocol: (1) Action against hydrochloric acid ulcer Wistar-strain male rats (weight 180 g, 6 to 7 rats per group) were starved for 18 hours and left without water for 4 hours before the test. The test drug was formed into an aqueous solution or suspended in an aqueous solution of 0.5% carboxymethyl cellulose and administered orally at a volume of 0.5 ml/100 g, and 30 minutes after administration, 1 ml of 0.6 N-HCl was orally administered. One hour after the administration, the stomach was excised and injected with 5 ml of 5% formalin solution. After the formalin fixation for 10 min., the stomach was cut open along the greater curvature, and the area (mm^2) of an ulcer generated at the corpus of stomach was measured. The total sum of the area of ulcer generated per rat was compared with that of the control group. The control group was administered with water or a 0.5% aqueous carboxymethyl cellulose solution. The Ulcer Index was determined as the inhibition ratio (%).

[1] = test system: restrictive water immersion stress ulcer; experiment: Action against restrictive water immersion stress ulcer; type: in vivo, Wistar-strain male rats; details: po; rat, 100 mg/kg peroral administration, 7 hours water immersion stress at 23° C.; ulcer length; read-out: Anti-ulcer action (stress ulcer), Inhibition rate against non-administered animal
Protocol: (2) Action against restrictive water immersion stress ulcer Wistar-strain male rats (weight 180 g, 6 to 8 rats per group) were starved for 18 hours before the test. The test drug was administered orally by the same method as used in (1). Thirty minutes after the administration, the rats were placed in a restrictive stress cage, and immersed to the xiphoideus process of the rat in water of 23° C. After the loading stress for 7 hours, the stomach was excised and, fixed in formalin by the same method as used in (1), and the length (mm) of the ulcer was measured. The total length of an ulcer generated per rat was compared with that of the control group. An Ulcer Index was determined as the inhibition ratio (%).

Molecule `NC[C@H]1CC[C@H](C(=O)N[C@@H](Cc2ccccc2)C(N)=O)CC1` [Compound 1, N-[trans-4-aminomethylcyclohexyl-carbonyl]-L-phenylalanine amide hydrochloride] has an inhibition in vivo at 100 mg/kg (hydrochloric acid ulcer) of 77.1% and an inhibition in vivo at 100 mg/kg [1] of 88.2%.
`CN(C)C(=O)[C@H](Cc1ccccc1)NC(=O)[C@H]1CC[C@H](CNC(=N)N)CC1` [Compound 19, N-(trans-4-guanidinomethylcyclohexylcarbonyl)-L-phenylalanine dimethylamide methanesulfonate] gave an inhibition in vivo at 100 mg/kg (hydrochloric acid ulcer) of 52.5%.
In the case of `CCOC(=O)CNC(=O)[C@H](Cc1ccccc1)NC(=O)[C@H]1CC[C@H](CN)CC1` [Compound 5] (H-[Trx]-Phe-Gly-OEt), the inhibition in vivo at 100 mg/kg (hydrochloric acid ulcer) is reported as 53.3% and the inhibition in vivo at 100 mg/kg [1] is reported as 76%.
Work on `CC(C)(C)NC(=O)[C@H](Cc1ccccc1)NC(=O)[C@H]1CC[C@H](CN)CC1` [Compound 15] yielded an inhibition in vivo at 100 mg/kg (hydrochloric acid ulcer) of 73.1% and an inhibition in vivo at 100 mg/kg [1] of 76.4%.
Work on `CN(C)C(=O)c1ccc(NC(=O)[C@H](Cc2ccccc2)NC(=O)[C@H]2CC[C@H](CN)CC2)cc1` [Compound 24] yielded an inhibition in vivo at 100 mg/kg (hydrochloric acid ulcer) of 82.6% and an inhibition in vivo at 100 mg/kg [1] of 70.6%.
For `CC(=O)c1ccc(NC(=O)C(Cc2cccc(Oc3ccccc3)c2)NC(=O)[C@H]2CC[C@H](CN)CC2)cc1` (mixture of isomers) [Compound 32, N-(trans-4-aminomethylcyclohexylcarbonyl)-3-phenoxy-DL-phenylalanine 4-acetylanilide hydrochloride], the inhibition in vivo at 100 mg/kg (hydrochloric acid ulcer) was 86.4% and the inhibition in vivo at 100 mg/kg [1] was 67.4%.
Work on `CCOC(=O)CCNC(=O)[C@H](Cc1ccccc1)NC(=O)[C@H]1CC[C@H](CN)CC1` [Compound 30] yielded an inhibition in vivo at 100 mg/kg (hydrochloric acid ulcer) of 67.5%.
Work on `NCc1ccc(C(=O)N[C@@H](Cc2ccccc2)C(N)=O)cc1` [Compound 2, N-(4-aminomethylbenzoyl)-L-phenyl-alanineamide hydrochloride] yielded an inhibition in vivo at 100 mg/kg (hydrochloric acid ulcer) of 58.2%.
For `N=C(N)c1ccc(C(=O)N[C@@H](Cc2ccccc2)C(=O)Nc2ccc(C(N)=O)cc2)cc1` [Compound 28, N-(4-amidinobenzoyl)-L-phenylalanine 4-carbamoylanilide methanesulfonate], the inhibition in vivo at 100 mg/kg (hydrochloric acid ulcer) was 69.8% and the inhibition in vivo at 100 mg/kg [1] was 57.4%.
Molecule `CCOC(=O)C1CCC(NC(=O)[C@H](Cc2ccccc2)NC(=O)[C@H]2CC[C@H](CN)CC2)CC1` (some centres unmarked) [Compound 4] has an inhibition in vivo at 100 mg/kg (hydrochloric acid ulcer) of 71.4% and an inhibition in vivo at 100 mg/kg [1] of 74.6%.
Molecule `CCOC(=O)c1cccc(NC(=O)[C@H](Cc2ccccc2)NC(=O)[C@H]2CC[C@H](CN)CC2)c1` [Compound 18] has an inhibition in vivo at 100 mg/kg (hydrochloric acid ulcer) of 89.2%.
`CC(=O)c1ccc(NC(=O)[C@H](Cc2ccccc2)NC(=O)c2ccc(CN)cc2)cc1` [Compound 16, N-(4-aminomethylbenzoyl)-L-phenylalanine 4-acetylanilide hydrochloride] showed an inhibition in vivo at 100 mg/kg (hydrochloric acid ulcer) of 96.6%.
`NC[C@H]1CC[C@H](C(=O)N[C@@H](Cc2ccccc2)C(=O)Nc2ccc(C(=O)O)cc2)CC1` [Compound 14, N-(trans-4-aminomethylcyclohexylcarbonyl)-L-phenylalanine 4-hydroxycarbonylanilide hydrochloride] was tested, and the inhibition in vivo at 100 mg/kg (hydrochloric acid ulcer) was 74.8%.
Molecule `CCOC(=O)C1CCCC(NC(=O)[C@H](Cc2ccccc2)NC(=O)[C@H]2CC[C@H](CN)CC2)C1` (some centres unmarked) [Compound 6] has an inhibition in vivo at 100 mg/kg (hydrochloric acid ulcer) of 77.4%.
`CC1CCC(NC(=O)[C@H](Cc2ccccc2)NC(=O)c2ccc(NC(=N)N)cc2)CC1` (mixture of isomers) [Compound 12, N-(4-guanidinobenzoyl)-L-phenylalanine 4-cis/trans-methylcyclohexylamide hydrochloride] gave an inhibition in vivo at 100 mg/kg (hydrochloric acid ulcer) of 89.4% and an inhibition in vivo at 100 mg/kg [1] of 65.8%.
`CNC(=O)c1ccc(NC(=O)[C@H](Cc2ccccc2)NC(=O)[C@H]2CC[C@H](CN)CC2)cc1` [Compound 23, N-(trans-4-aminomethylcyclohexylcarbonyl)-L-phenylalanine 4-methylcarbamoylanilide hydrochloride] was tested, and the inhibition in vivo at 100 mg/kg (hydrochloric acid ulcer) was 79.9%.
`NC[C@H]1CC[C@H](C(=O)N[C@@H](Cc2ccc(OCc3ccccc3)cc2)C(=O)Nc2cccnc2)CC1` [Compound 31] gave an inhibition in vivo at 100 mg/kg (hydrochloric acid ulcer) of 92.3% and an inhibition in vivo at 100 mg/kg [1] of 60%.
`CNC(=O)[C@H](Cc1ccccc1)NC(=O)[C@H]1CC[C@H](CN)CC1` [Compound 7, N-(trans-4-aminomethylcyclohexyl-carbonyl)-L-phenylalanine methylamide hydrochloride] showed an inhibition in vivo at 100 mg/kg (hydrochloric acid ulcer) of 52.6%.
`CN(C)C(=O)[C@H](Cc1ccccc1)NC(=O)[C@H]1CC[C@H](CN)CC1` [Compound 9, N-(trans-4-aminomethylcyclohexyl-carbonyl)-L-phenylalanine dimethylamide hydrochloride] was tested, and the inhibition in vivo at 100 mg/kg (hydrochloric acid ulcer) was 73.6% and the inhibition in vivo at 100 mg/kg [1] was 77.6%.
Work on `CN(C)C(=O)[C@H](Cc1ccccc1)NC(=O)c1ccc(C(=N)N)cc1` [Compound 22, N-(4-amidinobenzoyl)-L-phenylalanine dimethylamide hydroiodide] yielded an inhibition in vivo at 100 mg/kg (hydrochloric acid ulcer) of 86% and an inhibition in vivo at 100 mg/kg [1] of 76.2%.
`CCOC(=O)c1ccc(CNC(=O)[C@H](Cc2ccccc2)NC(=O)[C@H]2CC[C@H](CN)CC2)cc1` [Compound 10] showed an inhibition in vivo at 100 mg/kg (hydrochloric acid ulcer) of 60.4% and an inhibition in vivo at 100 mg/kg [1] of 86.1%.
With `CCOC(=O)[C@H](CO)NC(=O)[C@H](Cc1ccccc1)NC(=O)[C@H]1CC[C@H](CN)CC1` [Compound 20, Ethyl N-N-(trans-4-aminomethylcyclohexylcarbonyl)-L-phenylalanyl-L-serinate hydrochloride] (H-[Trx]-Phe-Ser-OEt) the inhibition in vivo at 100 mg/kg (hydrochloric acid ulcer) was 54.3% and the inhibition in vivo at 100 mg/kg [1] was 70%.
`CC(=O)c1ccc(NC(=O)[C@H](Cc2ccccc2)NC(=O)c2ccc(C(=N)N)cc2)cc1` [Compound 29] was tested, and the inhibition in vivo at 100 mg/kg (hydrochloric acid ulcer) was 81% and the inhibition in vivo at 100 mg/kg [1] was 83.7%.
`NC[C@H]1CC[C@H](C(=O)N[C@@H](Cc2ccccc2)C(=O)Nc2cccc(C(N)=O)c2)CC1` [Compound 26] gave an inhibition in vivo at 100 mg/kg (hydrochloric acid ulcer) of 80.8%.
`CCOC(=O)c1ccc(NC(=O)[C@H](Cc2ccccc2)NC(=O)[C@H]2CC[C@H](CN)CC2)cc1` [Compound 21] showed an inhibition in vivo at 100 mg/kg (hydrochloric acid ulcer) of 89.8%.
`CCOC(=O)c1ccccc1NC(=O)[C@H](Cc1ccccc1)NC(=O)[C@H]1CC[C@H](CN)CC1` [Compound 3] was tested, and the inhibition in vivo at 100 mg/kg (hydrochloric acid ulcer) was 91.4% and the inhibition in vivo at 100 mg/kg [1] was 52.2%.
Molecule `CCOC(=O)C1CCN(C(=O)[C@H](Cc2ccccc2)NC(=O)[C@H]2CC[C@H](CN)CC2)CC1` [Compound 11] has an inhibition in vivo at 100 mg/kg (hydrochloric acid ulcer) of 68.4% and an inhibition in vivo at 100 mg/kg [1] of 85.2%.
`NC[C@H]1CC[C@H](C(=O)N[C@@H](Cc2ccccc2)C(=O)Nc2ccc(C(N)=O)cc2)CC1` [Compound 13, N-(trans-4-aminomethylcyclohexyl-carbonyl)-L-phenylalanine 4-carbamoylanilide hydrochloride] was tested, and the inhibition in vivo at 100 mg/kg (hydrochloric acid ulcer) was 85.7% and the inhibition in vivo at 100 mg/kg [1] was 64.8%.
`CN(C)C(=O)[C@H](Cc1ccccc1)NC(=O)c1ccc(CN)cc1` [Compound 17] showed an inhibition in vivo at 100 mg/kg (hydrochloric acid ulcer) of 57.5%.
For `CCOC(=O)CN(C)C(=O)[C@H](Cc1ccccc1)NC(=O)[C@H]1CC[C@H](CN)CC1` [Compound 25] (H-[Trx]-Phe-[Sar]-OEt), the inhibition in vivo at 100 mg/kg (hydrochloric acid ulcer) was 57.3%.
With `CC(=O)c1ccc(NC(=O)[C@H](Cc2ccccc2)NC(=O)[C@H]2CC[C@H](CN)CC2)cc1` [Compound 8] the inhibition in vivo at 100 mg/kg (hydrochloric acid ulcer) was 73.2% and the inhibition in vivo at 100 mg/kg [1] was 65%.
In the case of `NCc1ccc(C(=O)N[C@@H](Cc2ccccc2)C(=O)Nc2ccc(C(N)=O)cc2)cc1` [Compound 27, N-(4-aminomethylbenzoyl)-L-phenylalanine 4-carbamoylanilide hydrochloride], the inhibition in vivo at 100 mg/kg (hydrochloric acid ulcer) is reported as 78.1%.
